Laboratory results reported in patent publication US12661353B2, “SPT5 inhibitors and uses thereof” (Yeda Research and Development Co. Ltd., priority 2020, dated 2026).

What was measured:
[1] = target: T1, Spt5-Pol II interaction (NGN and KOW 1&2 of Spt5, coiled-coil domain of Rpb1) (Homo sapiens, UniProt P24928); experiment: Split-Renilla luciferase (RL) complementation assay of Spt5-Pol II interaction; format: binding
T1 construct: the region spanning NGN and KOW 1&2 of Spt5 and the coiled-coil (CC) domain of Rpb1; the coiled-coil (CC) domain of Rpb1, the large subunit of Pol II, were fused to N-RL and C-RL, respectively; made in house; host or cells: E. coli (pRSFDuet double expression plasmid); bacterial cell lysate used unpurified
T1 sequence (P24928 8-370 limits assumed): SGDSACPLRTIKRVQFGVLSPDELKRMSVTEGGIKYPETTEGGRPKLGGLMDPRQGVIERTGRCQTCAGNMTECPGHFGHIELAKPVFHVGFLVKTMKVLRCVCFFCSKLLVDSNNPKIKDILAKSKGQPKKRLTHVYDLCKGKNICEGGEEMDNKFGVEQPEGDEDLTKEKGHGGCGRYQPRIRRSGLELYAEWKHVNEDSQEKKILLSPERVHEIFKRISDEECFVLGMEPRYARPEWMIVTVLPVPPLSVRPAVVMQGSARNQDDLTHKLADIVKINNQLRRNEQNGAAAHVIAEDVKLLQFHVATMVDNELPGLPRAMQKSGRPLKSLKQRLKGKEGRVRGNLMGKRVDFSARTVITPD
Excerpt: Plasmid construction—The mammalian expression plasmids RSV-AC/AN Renilla luciferase (pRL-AC/AN), encoding the N-terminal amino acid residues 1-229 or the C-terminus 230-311 of the Renilla luciferase (RL) were previously described in Ashkenazi et al., 2016; and Ashkenazi et al., 2017. The split-Renilla luciferase fusion plasmids were constructed by two-step PCR using the pRL-AC or pRL-AN as backbones and plasmids encoding the region spanning NGN and KOW 1&2 of human Spt5 (SEQ ID NOs: 1-3) or the coiled-coil (CC) domain of human Rpb1 (SEQ ID NOs: 4-6), respectively, as insert sources. For bacterial expression of the split-RL fusion proteins the double expression plasmid pRSFDuet was used. All constructs were verified by sequencing.
High-throughput drug screening (HTS)—About 100,000 compounds [from MEGxp library: Pure natural compounds from plants (see Table 1 hereinbelow) were screened for their effect on Spt5-Pol II interaction (a schematic representation of the assay is shown in FIG. 1B). […] Compounds that diminished the luminescence activity by >30% were subjected for an additional screen with a bacterial lysate expressing recombinant full-length RL (diluted 1: 500 in phosphate buffer) that served as a control for false-positive compounds that inhibit the RL enzymatic activity itself (Ashkenazi et al., 2017). […]

[2] = system: replication-dependent histone genes; experiment: Histone gene levels after 24 hours, cDNA with random hexamers, qPCR; format: cell-based, human
Procedure: A schematic illustration of a histone gene structure is shown on the top. For polyA+ RNA analysis, cDNA was prepared with a poly-dT oligonucleotide. In each analysis the levels were normalized to GAPDH; and the bars present the mean of 3±SEM independent experiments. * P<0.05 relative to DMSO (vehicle control). […] The data represent the means±SEMs of 3 independent experiments. The asterisks denote statistically significant differences relative to DMSO; according to Student's t tests (typically one-tailed, paired): *p<0.05; **p<0.01; ***p<0.005.
Since the RNA-seq following treatment with SPI-21 detects only polyadenylated transcripts and the treatment was effected for 2 hours, during which only a fraction of cells is in S-phase, an effect on histone genes was not found. Thus, to investigate further the regulation of histone genes by Spt5 using the identified SPIs, cells were treated for 24 hours with SPI-21 or SPI-18, to allow all cells to pass S-phase at least once. Following, mRNA was extracted and cDNA was prepared using random hexamers and the levels of 4 histone genes were determined. […] To this end, cDNA prepared by random hexamer and Poly-T the ratio between total and poly-A tailed histone genes was determined. […]

| SMILES | IC50 [1] | expression of the selected histone genes [2] |
| --- | --- | --- |
| COc1ccc(C=CC(=O)c2cc(O)ccc2O)cc1 [SPI-21] | 25 µM | diminished expression of the selected histone genes |
| Nc1ccccc1SC(CC(=O)c1cccs1)c1cccs1 (stereo not shown) [SPI-18] | 33 µM | diminished expression of the selected histone genes |
